# From paper PMC12767106, “In Situ Assembly of Transformable Monopeptide on Activated Neutrophils Attenuates NETs‐Induced Hepatocellular Carcinoma Metastasis by Disrupting NE Nuclear Translocation” (Advanced Science, 2025)
# What was measured:
# [1] = system: subcutaneous Hepa1-6/luc tumors; test: Immune profiling of tumors by flow cytometry, plasma cytokines by ELISA; assay type: in vivo, mouse; conditions: tumor-bearing mice
# Description: Submitted to Advanced Science
# Total RNA was extracted and purified using a miRNeasy Mini Kit (FOREGENE, China). Quantitative real-time polymerase chain reaction (qRT-PCR) was performed in triplicate in the ABI 7500 fast real-time PCR System (Applied Biosystems, USA). The mRNAs were normalized with 18s. The following primers were used for PCR detection: E-cadherin, N-cadherin, Vimentin, and α-catenin.
# Western blot analysis was performed to evaluate the levels of relative proteins in Hepa1-6/luc cells and Neutrophils.38 To evaluate NETs release, the neutrophils were exposed to PMA, PMA+NFTP -NPs, and PMA+FTP-NPs for 12 h. Following treatment, the cells underwent three PBS washes for WB to measure the expression of CitH3 proteins (Cat. no. ab5103, Abcam, Cambridge, England , UK). Furthermore, to evaluate EMT of Hepa1-6/luc cells, the cells underwent three PBS washes for WB to measure the expression of E - cadherin (Abmart, China), N-cadherin (Abmart, China), Vimentin (Abmart, China) , and β-catenin (Abmart, […]
# In vivo subcutaneously implanted tumor models
# The C57BL/6J mice with subcutaneous Hepa1-6/luc xenografts (grew up to roughly 100 mm 3) were separated into four groups according to the different treatments to perform the in vivo tumor therapy. PBS, NFTP-NPs, FTP-NPs, and NEi (300 µM in PBS: DMSO = 95:5, 200 µL) were administered intravenously (i.v.) five times every two days to mice. aPD-1 (BE0146, Bio X Cell, USA) was injected intraperitoneally into each mouse at 200μg once every 4 days for 3 doses. Throughout the experiment, the tumor volumes and body weight were measured once every four days. The formula tumor volume=length*1/2 width2 was used to get the tumor volume; at the same time, IVIS (AniView SE, Guangzhou Biolight Biotechnology Co., Ltd) was used to calculate bioluminescence signals in vivo. After therapy (day 20), major organs and blood samples were taken for histological and biochemical investigation as part of a safety assessment. […]
# TNF-α, were measured using commercially available ELISA kits to assess the immune activation induced by […]
# Hepa1-6 cells = test: Trans-endothelial invasion assay; assay type: cell-based, mouse; conditions: 48 h, versus Control group
# Description: Cell migration and invasion assay […]
# Matrigel tube formation assay
# Murine C166 endothelial cells (3×10^4cells/well) were placed on 96-well plates coated with Matrigel (356231, Corning, New York, USA) and incubated with various treatments. […]
# In vitro permeability assays and trans-endothelial invasion assays
# For in vitro permeability assays, C166 cells were treated with Resting neutrophils, Control, NFTP-NPs, FTP-NPs, and NEi groups for 48 h to form an endothelial monolayer, and then Evans Blue (PHYGENE, China) was added to the upper layer of the transwell filters (0.4 μm, Corning). After 30 min, the medium in the lower layer of the chamber was collected to measure the absorbance at 620 nm (Tecan Infinite M200, Switzerland).
# For trans-endothelial invasion assays, […] Hepa1-6/luc cells were seeded into transwell filters (8 μm, Corning) with endothelial cell monolayers pretreated with resting neutrophils, Control, NFTP-NPs, FTP-NPs, and NEi groups. After incubation for 48 h, the transmembrane cells were washed, fixed with 4% paraformaldehyde, stained with crystal violet, and observed under a microscope (Axiovert 200, Zeiss, Germany).
# All the experiments were performed thrice. […]
# [2] = system: Hepa1-6/luc murine HCC cells; test: CCK-8 cytotoxicity; assay type: cell-based, mouse; conditions: CCK-8, 24 h, different dosages
# Description: 10 minutes to remove unbound particles, and the supernatant was collected. […]
# In vitro cytotoxicity assay
# The CCK-8 assay was used to assess the cell viability of Hepa1-6/luc, resting neutrophils, and activated neutrophils. Following the seeding of 1*10^4 cells per well on a 96-well plate, the cells were subjected to different dosages of FTP-NPs and NFTP-NPs (medium: DMSO = 99:1 v/v). After 24 hours, the cells were incubated for two hours with 10 µL of CCK-8 solution. Finally, a microplate reader (Tecan Infinite M200, Switzerland) was used to measure cell viability based on the absorbance values.
# Targeting the capability of NEBP
# To evaluate the targeting capability of NE-binding peptide (NEBP), the harvested resting neutrophils and […]
substance,measurement,setting,value
PpIX-GFFVLK-EAIPMSIPPEVK [FTP-NPs],plasma IL-6 level,[1],significantly higher
same,plasma IL-10 level,[1],decreased
same,plasma TNF-α level,[1],significantly higher
same,number of Hepa1-6 cells passing through the endothelial monolayer,Hepa1-6 cells,significantly lower
same,survival rate,[2],over 95%
